Laboratory results published in patent US20260325504A1, “Genetically Engineered Human Pituitary Corticotroph Tumor Organoids Exhibit Divergent Responses to Selective Glucocorticoid Receptor Modulators” (Corcept Therapeutics Incorporated, priority 2022, published 2026).
“Also recorded” adds a separate entry of the source.

Columns and labels:
[1] = tested on: SSTR2; assay: Differential expression of SSTR2 (qRT-PCR) in iPSC generated pituitary organoids; type: cell-based, human; conditions: for expression of SSTR2 / induction in SSTR2 expression, mifepristone compared to relacorilant: iPSC organoids; for expression of SSTR2: 500 nM, vs vehicle; for SSTR2 induction relative to SSTR5: PitNET organoids, summary; for induction in SSTR2 expression, mifepristone compared to relacorilant: 500 nM each, FIG. 5A
Procedure: (§1) Sonic Hedgehog (SHH) was withdrawn from the organoid growth media 16 hours prior to treatment. The experimental treatment groups included: vehicle (Veh), mifepristone (500 nM, Selleckchem S2606), GANT61 (5 μM, Stemcell Technologies 73692), ketoconazole (Keto, 10 μM, Selleckchem S1353), pasireotide (Pas, 100 nM, Target Mol TP2207-SB001), octreotide (Oct, 100 nM, Selleckchem P1017), mifepristone plus GANT61, mifepristone plus Keto, mifepristone plus Pas, relacorilant (500 nM, Corcept Therapeutics CORT125134), relacorilant plus Pas, relacorilant plus Oct, or dexamethasone (Dexa, 100 nM, SIGMA S4902). In the combination treatments, cultures were pretreated with the GANT61, Keto, Pas or Oct for 2 hours prior to treatment with mifepristone or Rela. PitNET tissue derived organoids hPITO36, hPITO37, hPITO38, hPITO39, and hPITO40 were treated with the following experimental conditions: Vehicle (1), pasireotide (2), relacorilant (3), relacorilant & pasireotide (4), mifepristone (5), mifepristone & pasireotide (6). The IC50 values used for each hPITO line for each drug were determined based on dose responses (FIG. 12). All organoid cultures were treated for 48 hours prior to analysis.
RNA was extracted from PitNET tissue or iPSC generated organoids using TRI Reagent® (Molecular Research Center Inc TR118) and the High Capacity cDNA Reverse Transcription Kit (Applied Biosystems, Foster City, CA) was used for cDNA synthesis of RNA following the recommended protocol. For each sample, 60 ng RNA was reverse transcribed to yield approximately […] total cDNA that was then used for the qRT-PCR. Pre-designed real-time polymerase chain reaction assays were purchased for the following genes: TPit (Thermo Fisher Scientific 4331182 Hs00193027), SF1 (Thermo Fisher Scientific 4331182 Hs00610436), SSTR2 (Thermo Fisher Scientific 4331182 Hs00265624_s1), SSTR5 (Thermo Fisher Scientific 4331182 Hs00990407_s1), POMC (Thermo Fisher Scientific 4331182 Hs01596743_ml), hPRT (Thermo Fisher Scientific 4331182 Hs02800695_ml), and FKBP5 (Thermo Fisher Scientific 4331182 Hs01561006_m1). Polymerase chain reaction amplifications were performed in a total volume of 20 μL containing 20× TaqMan Expression Assay primers, 2× TaqMan Universal Master Mix (Applied Biosystems, TaqMan® Gene Expression Systems), and cDNA template. Each polymerase chain reaction amplification was performed in triplicate wells in a StepOne Real-Time PCR System (Applied Biosystems) by using the following conditions: 500C 2 minutes, 95° C. 10 minutes, 95° C. 15 seconds (denature) and 60° C. 1 minute (anneal/extend) for 40 cycles. Fold change was calculated as the following: (Ct-Ct high)=n target, 2ntarget/2nHPRT=fold change where Ct=threshold cycle. The results were expressed as average fold change in or differential gene expression relative to control, with HPRT used as an internal control according to Livak and Schmittgen.

[2] = tested on: hPITO; assay: Spectral flow cytometry, Zombie positive cells (cell death), hPITOs; type: cell-based, human; conditions: 48 h, FIGS. 9K, L
Source text: 1.3 Generation and Culture of Human PitNET Tissue Organoids (hPITOs)
Patients undergoing planned transsphenoidal surgery for PitNETs were identified in the outpatient neuroendocrinology and neurosurgery clinics and collected by the St. Joseph's Hospital and Barrow Neurological Institute Biobank under the collection protocol PHXA-05TS038, and outcomes data protocol PHXA-0004-72-29 with approval of the Institutional Review Board (IRB) and patient consent. De-identified samples were shipped in collection and transport media (Table 3) to the Zavros laboratory (University of Arizona) for processing within 24 hours of collection. Resected PitNET tissues were washed with Dulbeccos Phosphate Buffered Saline (DPBS) supplemented with 1× Penicillin/Streptomycin, 1× Kanamycin and 1× Amphotericin/Gentamycin, minced into smaller pieces, and incubated with digestion buffer (Dulbecco's Modified Eagle Medium/Nutrient Mixture F-12 (DMEM/F12) supplemented with 0.4% Collagenase 2, 0.1% Hyaluronic Acid, 0.03% Trypsin). The tissue was incubated with Accutase (Thermo Fisher Scientific) for a further 5 minutes, and the cells were pelleted and washed with DPBS supplemented with antibiotics. Dissociated cells were then seeded as Matrigel™ domes in culture dishes and overlaid with growth media (Table 4). Media was replaced every 3 days and organoids were harvested for downstream experiments or passaged after 15 days of culture (FIG. 1B).
as §1
The multicolor flow cytometry antibody panel was designed using the Cytek® Full Spectrum Viewer online tool to calculate the similarity index. Organoids were harvested in cold Serum-Free Defined Medium media and incubated with Zombie (BioLegend 423107, 1:100) for 15 minutes in the dark at room temperature, followed by incubation with fluorochrome-conjugated/unconjugated primary surface or cytoplasmic antibodies (Table 6) at 4° C. for 30 minutes. Cells were then washed with Cell Staining Buffer (BioLegend 420-201) and incubated at 4° C. for 30 minutes with secondary antibodies (Table 6). Cells were fixed using Cytofix/Cytoperm™ Fixation/Permeabilization Solution (BD Biosciences 554714) and washed with Fixation/Permeabilization wash buffer according to the recommended protocol. […]

| Structure (SMILES) | expression of SSTR2 ([1]; 48 h) | cell death (Zombie positive cells) [2] | cell death in epithelial/mesenchymal hybrid cell population (CK20, vimentin, CXCR4) [2] | cell death in populations expressing stem cell markers SOX2, CXCR4 and nestin [2] | cell death (Zombie positive cells) ([2]; listed as Relacorilant) | SSTR2 induction relative to SSTR5 [1] | SSTR2 induction relative to SSTR5 ([1]; listed as Mifepristone) | induction in SSTR2 expression, mifepristone compared to relacorilant ([1]; 48 h) | induction in SSTR2 expression, mifepristone compared to relacorilant ([1]; 48 h, listed as Mifepristone) | differential expression of SSTR2 ([1]; iPSCctrl organoids, compound alone, 48 h, FIG. 5C, D) |
| --- | --- | --- | --- | --- | --- | --- | --- | --- | --- | --- |
| Cn1cc(S(=O)(=O)N2CCC3=Cc4c(cnn4-c4ccc(F)cc4)C[C@]3(C(=O)c3cc(C(F)(F)F)ccn3)C2)cn1 [relacorilant, (R)-(1-(4-fluorophenyl)-6-((1-methyl-1H-pyrazol-4-yl)sulfonyl)-4,4a,5,6,7,8-hexahydro-1H-pyrazolo[3,4-g]isoquinolin-4a-yl) (4-(trifluoromethyl)pyridin-2-yl) methanone] | significant induction; also recorded: significantly induced the expression | significant increase in cell death | significant cell death | significant cell death | Induces Tumor Cell Death; also recorded: significant increase in Zombie positive cells |  |  |  |  |  |
| CC#C[C@]1(O)CC[C@H]2[C@@H]3CCC4=CC(=O)CCC4=C3[C@@H](c3ccc(N(C)C)cc3)C[C@@]21C [mifepristone, 11β-(4-dimethylaminophenyl)-17ß-hydroxy-17α-(1-propynyl)-estra-4,9-dien-3-one] | significant induction; also recorded: significantly induced the expression | not observed |  |  |  | predominantly induced SSTR2 expression; also recorded: significantly greater induction in SSTR2 than SSTR5 | induces SSTR2 with greater magnitude compared to SSTR5 | preferentially induced the expression of SSTR2 | significantly greater induction in SSTR2 expression when compared to relacorilant | significantly induced |
